Data on 87 compounds can be found in the Bradley open melting point set (2014).

A word on the melting point: it is the temperature, or range, at which the solid turns liquid.

Where “and” joins values, the source holds several entries; their conditions need not be identical. Identical values can stand only once.

For the compound `CC#N` [Acetonitrile], the melting point was -46 °C. Compound `CCCCCCCCCCc1ccccc1` [Decylbenzene] registered a melting point of -14 °C. For `N#CCCC#N` [succinonitrile], the melting point stood at 56 °C.

`C=CC(=O)OC` [methyl acrylate] displayed a melting point of -75 °C. `CCCCCCCCCCCCO` [Dodecan-1-ol] returned a melting point of 24 °C.

Take `CC(C)S[C@@H]1O[C@H](CO)[C@H](O)[C@H](O)[C@H]1O` [isopropyl-beta-d-thiogalactoside]: the melting point worked out at 112 °C. Then `BrCCCCCCCCBr` [1,8-dibromooctane], with 16 °C; and `COc1ccc2[nH]c(C)cc2c1` [5-methoxy-2-methylindole], with 87 °C; and `C(=C\c1ccccc1)/c1ccccc1` [trans-stilbene], with 125 °C and 124 °C. `C[C@H](N)C(=O)N[C@@H](C)C(=O)O` [L-Alanyl-L-alanine] gave a melting point of 280 °C.

With `FC(F)(F)c1cccc(Cl)n1` [2-chloro-6-(trifluoromethyl)pyridine], the melting point was 29 °C.

`O=C(O)/C=C/c1cccc(B(O)O)c1` [3-(2-carboxyvinyl)benzeneboronic acid] returned a melting point of 218 °C. On to `CC1=NC2=CCC=CC2=C1C#N` [2-methyl-1H-indole-3-carbonitrile], for which the melting point stood at 213 °C. Then `CCCCC(CC)COP(=O)(OCC(CC)CCCC)OCC(CC)CCCC` (configuration not stated) [Tris(2-ethylhexyl) phosphate], with -70 °C; and `COc1ccc(B(O)O)c(OC)n1` [2,6-dimethoxypyridine-3-boronic acid], with 129 °C. `CCOC(=O)CCC(C)C1CCC2C3C(=O)C(Br)C4CC(OC(C)=O)CCC4(C)C3CC(OC(C)=O)C12C` (configuration not stated) [ethyl 3,12-bis(acetyloxy)-6-bromo-7-oxocholan-24-oate]: the melting point amounted to 125 °C. For `COC(=O)c1ncoc1C(=O)OC` [dimethyl oxazole-4,5-dicarboxylate] the value was 75 °C; for `O=C1COC(c2ccc(C(F)(F)F)cc2)CN1` (configuration not stated) [flumetramide], 116 °C. For `OCc1cc(Cl)ccc1O` [5-chloro-2-hydroxybenzyl alcohol], the melting point stood at 86 °C. Then `O=C1CCC(N2C(=O)c3ccccc3C2=O)C(=O)N1` (configuration not stated) [thalidomide], with 270 °C.

As for `CCOC(C)OCC` [acetaldehyde diethyl acetal], the melting point is -100 °C. As for `COc1cccc(C(N)=O)c1` [3-methoxybenzamide], the melting point turned out to be 133 °C. `Cc1cccc(O)c1C` [2,3-dimethylphenol]: the melting point was found to be 72 °C. Then `ClC1CCCC1` [chlorocyclopentane], with -94 °C; and `O=C(/C=C/c1ccc(-c2ccccc2)o1)c1ccccc1` [(2E)-1-phenyl-3-(5-phenyl-2-furyl)prop-2-en-1-one], with 80 °C. Turning to `C=CCNC(N)=S` [N-allylthiourea], the melting point is 74 °C. In the case of `NC(=O)c1ccccc1[N+](=O)[O-]` [2-nitrobenzamide], the melting point came out at 176 °C. Then `N#Cc1ccc(B(O)O)s1` [5-cyanothiophene-2-boronic acid], with 127 °C; and `Cn1c(=O)ccc2ccccc21` [1-methyl-2-quinolinone], with 75 °C. Then `Cc1ccnc(NS(=O)(=O)c2ccc(N)cc2)n1` [sulfamerazine], with 234 °C; and `OB(O)c1ccc(Cl)cc1Cl` [2,4-dichlorobenzeneboronic acid], with 244 °C; and `Clc1ccc(C(c2ccc(Cl)cc2)C(Cl)(Cl)Cl)cc1` [DDT], with 109 °C (4×) and 108 °C (2×). `C=C(CC1c2ccccc2C(=O)N1Cc1ccccc1)c1ccccc1` (configuration not stated) [2-Benzyl-3-(2-phenyl-2-propenyl)isoindolin-1-one] showed a melting point of 70.5 °C. On to `CCCOC(=O)c1ccc(O)cc1` [propyl 4-hydroxybenzoate], for which the melting point worked out at 96 °C. For `BrCCOc1ccccc1` [2-phenoxyethyl bromide] the value was 33 °C. For `Clc1cccc(-c2nnn[nH]2)c1` [5-(3-chlorophenyl)-1h-tetrazole] the value was 140 °C.

In turn, `C#CC1(O)CCC2C3CCc4cc(O)ccc4C3C(OC)CC21C` (configuration not stated) [moxestrol] registered a melting point of 280 °C. For the compound `CCCCOB(OCCCC)OCCCC` [Tributyl borate], the melting point was -70 °C.

`COc1ccc(OC)c(C)c1` [2,5-dimethoxytoluene] had a melting point of 20 °C. For `CCOC(=O)OCC` [diethyl carbonate] the value was -43 °C; for `C=CC(=O)O` [acrylic acid], 13 °C.

Regarding `C#C[C@]1(O)CC[C@H]2[C@@H]3CCC4=CC(=O)CC[C@@H]4[C@H]3CC[C@@]21C` [norethindrone], the melting point came out at 204 °C. For `NC(=O)c1ccc(-c2ccccc2)cc1` [biphenyl-4-carboxamide] the value was 228 °C; for `COc1ccc(C(=O)c2ccccc2)cc1` [4-methoxybenzophenone], 62 °C; for `COc1ccccc1C(=O)O` [2-methoxybenzoic acid], 101 °C.

In turn, `CC(C)c1cccc(C(C)C)c1O` [2,6-diisopropylphenol] gave a melting point of 18 °C. Take `CC1(C)C(O)[C@H](Cl)[C@@H]2CC[C@H]1O2` (some centres not stated): the melting point worked out at 72 °C. For `CCB(O)O` [ethylboronic acid] the value was 86 °C; for `COc1cccc(OC)c1C` [2,6-dimethoxytoluene], 40 °C; for `CCOc1ccc(C(C)=O)cc1` [p-ethoxyacetophenone], 39 °C. As for `C1=CC2=CC=C3C=CC=CC4=C3CC2=C(C=C1)C=C4` [6H-5,7-ethenocyclohepta[b]heptalene], the melting point worked out at 130 °C. `COc1ccc(Br)c(OC)c1` [1-bromo-2,4-dimethoxybenzene] displayed a melting point of 26 °C. Then `COC(=O)c1ccc(C(=O)OC)cc1` [dimethyl terephthalate], with 142 °C.

Consider `ON=Cc1ccc(Cl)cc1` [4-Chlorobenzaldoxime], for which the melting point is 101 °C. Then `Cc1cc(CO)c(O)c(CO)c1` [2,6-bis(hydroxymethyl)-p-cresol], with 123 °C; and `Brc1cccnc1` [3-bromopyridine], with -27 °C; and `CC(=O)c1cc(F)cc(F)c1O` [3',5'-difluoro-2'-hydroxyacetophenone], with 107 °C. `Clc1cccc(Cl)c1N=C1NCCN1` [clonidine] showed a melting point of 130 °C.

As to `Nc1ncnc2c1ncn2[C@@H]1O[C@H](CO)[C@@H](O)[C@H]1O` [Adenosine], the melting point is 236 °C. For the compound `CC1(C)[C@@H]2CC[C@@]1(C)C(=O)C2` [camphor], the melting point amounted to 180 °C. Turning to `Clc1cc(-c2cc(Cl)c(Cl)c(Cl)c2Cl)c(Cl)c(Cl)c1Cl` [PCB-194], the melting point turned out to be 157 °C. For `OB(O)c1cccc(F)c1` [3-fluorobenzeneboronic acid] the value was 214 °C. For `O=C(Nc1ccc(/C=C/c2ccc(NC(=O)c3ccccc3)cc2)cc1)c1ccccc1` [N,N'-[(E)-ethene-1,2-diyldibenzene-4,1-diyl]dibenzamide], the melting point came to 253 °C.

With `COC1(OC)CCC2(C)C3CCC4(C)CCCC4(O)C3CCC2(C)C1` (configuration not stated) [3,3-dimethoxy-5-methylandrostan-14-ol], the melting point amounted to 147 °C. For `CCC(C)(C)C(=O)O[C@H]1C[C@@H](C)C=C2C=C[C@H](C)[C@H](CC[C@@H]3C[C@@H](O)CC(=O)O3)[C@H]21` [simvastatin] the value was 136 °C; for `C1=CCCCCCCCCCC1` [cyclododecene_(trans)], 0 °C; for `O=C1COc2cccnc2N1` [2h-pyrido[3,2-b]-1,4-oxazin-3(4h)-one], 206 °C. Then `Clc1cc(Cl)c(-c2cc(Cl)c(Cl)cc2Cl)cc1Cl` [PCB-153], with 103 °C; and `OCCN1CCCCC1C(c1ccccc1)c1ccccc1` (configuration not stated) [diphemethoxidine], with 106 °C; and `Cc1c(Cl)cccc1[N+](=O)[O-]` [2-chloro-6-nitrotoluene], with 36 °C. Then `CCN(CC)CCNC(=O)c1cc(Cl)c(N)cc1OC` [Metoclopramide], with 147 °C; and `CC(=O)OO` [Ethaneperoxoic acid], with 0.1 °C. Consider `Cn1c2c(c3ccccc31)CCCC2` [N-methyl-1,2,3,4-tetrahydrocarbazole], for which the melting point came out at 53 °C. Then `C=CC1(C(C)CCC)C(=O)NC(=O)NC1=O` (configuration not stated) [vinylbital], with 90 °C.

`O=C1C=CC(=O)C=C1` [p-benzoquinone] showed a melting point of 114 °C. For `N[C@@H](CO)Cc1ccccc1` [D-phenylalaninol] the value was 92 °C; for `COc1ccc(Cl)c(Cl)c1Cl` [1-methoxy-2,3,4-trichlorobenzene], 70 °C; for `C=CC(=O)NCCNC(=O)C=C` [N,N'-ethylenebisacrylamide], 142 °C. As for `O=C(c1ccc(F)cc1)c1ccccc1F` [2,4'-difluorobenzophenone], the melting point amounted to 23 °C. For `NCCS(=O)(=O)O` [2-Aminoethanesulfonic acid] the value was 300 °C; for `Clc1ccc(Br)c(Cl)c1` [1-bromo-2,4-dichlorobenzene], 27 °C; for `COc1ccccc1NC(=O)c1cnc(C(C)(C)C)c(Cl)n1`, 119 °C. Then `Nc1cc(C(F)(F)F)ccc1Cl` [2-chloro-5-(trifluoromethyl)aniline], with 9 °C; and `O=C(O)c1cccc2ccccc12` [1-naphthoic acid], with 161 °C. With `C#CCOc1c(Cl)cccc1Cl` [3-(2,6-dichlorophenoxy)-1-propyne], the melting point was determined as 44 °C. As to `O=C(C(=O)c1cccs1)c1cccs1` [2,2'-thenil], the melting point was 83 °C. `O=c1[nH]c2ccccc2n1C1CCN(CCCC(c2ccc(F)cc2)c2ccc(F)cc2)CC1` [Pimozide] returned a melting point of 216 °C.
